Tests used:
Type in all cases: cell-based, human
CCRF-CEM = experiment: NCI 60 growth inhibition; conditions: Leukemia
HCC-2998 = experiment: NCI 60 growth inhibition; conditions: HCC-2998, Colon Cancer
HCT-116 = experiment: NCI 60 growth inhibition; conditions: HCT-116, Colon Cancer
HCT-15 = experiment: NCI 60 growth inhibition; conditions: HCT-15, Colon Cancer
KM12 = experiment: NCI 60 growth inhibition; conditions: KM12, Colon Cancer
LOX IMVI = experiment: NCI 60 growth inhibition; conditions: Melanoma
MALME-3M = experiment: NCI 60 growth inhibition; conditions: Melanoma
MDA-MB-468 = experiment: NCI 60 growth inhibition; conditions: MDA-MB-468, Breast Cancer
MOLT-4 = experiment: NCI 60 growth inhibition; conditions: MOLT-4, Leukemia
NCI-H322M = experiment: NCI 60 growth inhibition; conditions: Non-Small Cell Lung Cancer
NCI/ADR-RES = experiment: NCI 60 growth inhibition; conditions: Ovarian Cancer
OVCAR-5 = experiment: NCI 60 growth inhibition; conditions: OVCAR-5, Ovarian Cancer
OVCAR-8 = experiment: NCI 60 growth inhibition; conditions: OVCAR-8, Ovarian Cancer
PC-3 = experiment: NCI 60 growth inhibition; conditions: PC-3, Prostate Cancer
SF-268 = experiment: NCI 60 growth inhibition; conditions: SF-268, CNS Cancer
SF-539 = experiment: NCI 60 growth inhibition; conditions: SF-539, CNS Cancer
SK-MEL-2 = experiment: NCI 60 growth inhibition; conditions: SK-MEL-2, Melanoma
SK-MEL-5 = experiment: NCI 60 growth inhibition; conditions: SK-MEL-5, Melanoma
SN12C = experiment: NCI 60 growth inhibition; conditions: Renal Cancer
SNB-19 = experiment: NCI 60 growth inhibition; conditions: SNB-19, CNS Cancer
SNB-75 = experiment: NCI 60 growth inhibition; conditions: SNB-75, CNS Cancer
SW-620 = experiment: NCI 60 growth inhibition; conditions: SW-620, Colon Cancer
TK-10 = experiment: NCI 60 growth inhibition; conditions: TK-10, Renal Cancer
[1] = system: primary AML cell line AML1; experiment: Anti-leukemic activity, Annexin V/7-AAD flow cytometry; conditions: Homo sapiens, AML1, 24 h, 24 h of drug exposure; read-out: AML#1 (EC50)
Description: (§1) The newly synthesized triazole derivatives of melampomagnolide B were screened for anti-leukemic activity against M9 ENL1 and primary AML cell lines; the latter were obtained with informed consent from human patients. Evaluations were performed after 24 h of drug exposure using flow cytometric analysis by labeling with Annexin V and 7-aminoactinomycin D (7-AAD) to delineate apoptotic cell populations. In all experiments PTL was included as a reference control.

[2] = system: primary AML cell line AML2; experiment: as above; conditions: Homo sapiens, 24 h, 24 h of drug exposure; read-out: AML#2 (EC50)
Description: as §1

SR = experiment: NCI 60 growth inhibition; conditions: Leukemia
UACC-257 = experiment: NCI 60 growth inhibition; conditions: Homo sapiens; UACC-257, Melanoma, Table 2

C=C1C(=O)O[C@H]2[C@H]1CC/C(Cn1cc(-c3ccccc3C(F)(F)F)nn1)=C\CC[C@@]1(C)O[C@@H]21 [JVM 4-59]
GI50 (CCRF-CEM; Table 3): 0.76 µM | GI50 (HCC-2998; Table 3): 1.85 µM | GI50 (HCT-116; Table 3): 1.26 µM | GI50 (HCT-15; Table 3): 1.05 µM | GI50 (KM12; Table 3): 5.88 µM | GI50 (LOX IMVI; Table 3): 1.11 µM | GI50 (MALME-3M; Table 3): 1.7 µM | GI50 (MDA-MB-468; Table 3): 1.14 µM | GI50 (MOLT-4; Table 3): 3.03 µM | GI50 (NCI-H322M; Table 3): 10.8 µM | GI50 (NCI/ADR-RES; Table 3): 2.99 µM | GI50 (OVCAR-5; Table 3): 2.46 µM | GI50 (OVCAR-8; Table 3): 2.23 µM | GI50 (PC-3; Table 3): 4.32 µM | GI50 (SF-268; Table 3): 2.09 µM | GI50 (SF-539; Table 3): 1.76 µM | GI50 (SK-MEL-2; Table 3): 2.45 µM | GI50 (SK-MEL-5; Table 3): 1.72 µM | GI50 (SN12C; Table 3): 2.47 µM | GI50 (SNB-19; Table 3): 10.8 µM | GI50 (SNB-75; Table 3): 2.97 µM | GI50 (SW-620; Table 3): 1.24 µM | GI50 (TK-10; Table 3): 1.71 µM

C=C1C(=O)O[C@H]2[C@H]1CC/C(Cn1cc(-c3ccc(OC)cc3)nn1)=C\CC[C@@]1(C)O[C@@H]21 [JVM 4-24, (1aR,7aS,10aS,10bS,E)-5((4-(4-Methoxyphenyl)-1H-1,2,3-triazol-1-yl)methyl)-1a-methyl-8-methylene-2,3,6,7,7a,8,10a,10b-octahydrooxireno[2′,3′:9,10]cyclodeca[1,2-b]furan-9(1aH)-one]
EC50 [1]: 2 µM | EC50 [2]: 2.5 µM | GI50 (CCRF-CEM; Homo sapiens, Table 2): 0.29 µM | GI50 (HCC-2998; Homo sapiens, Table 2): 1.98 µM | GI50 (HCT-116; Homo sapiens, Table 2): 0.48 µM | GI50 (HCT-15; Homo sapiens, Table 2): 0.33 µM | GI50 (KM12; Homo sapiens, Table 2): 3.51 µM | GI50 (LOX IMVI; Homo sapiens, Table 2): 1.16 µM | GI50 (MALME-3M; Homo sapiens, Table 2): 1.67 µM | GI50 (MDA-MB-468; Homo sapiens, Table 2): 0.89 µM | GI50 (MOLT-4; Homo sapiens, Table 2): 1.13 µM | GI50 (NCI-H322M; Homo sapiens, Table 2): 10.7 µM | GI50 (NCI/ADR-RES; Homo sapiens, Table 2): 3.08 µM | GI50 (OVCAR-5; Homo sapiens, Table 2): 1.71 µM | GI50 (OVCAR-8; Homo sapiens, Table 2): 2.59 µM | GI50 (PC-3; Homo sapiens, Table 2): 9.35 µM | GI50 (SF-268; Homo sapiens, Table 2): 2.07 µM | GI50 (SF-539; Homo sapiens, Table 2): 0.34 µM | GI50 (SK-MEL-2; Homo sapiens, Table 2): 1.95 µM | GI50 (SK-MEL-5; Homo sapiens, Table 2): 2.1 µM | GI50 (SN12C; Homo sapiens, Table 2): 1.96 µM | GI50 (SNB-19; Homo sapiens, Table 2): 6.92 µM | GI50 (SNB-75; Homo sapiens, Table 2): 1.47 µM | GI50 (SR; Homo sapiens, Table 2): 0.25 µM | GI50 (SW-620; Homo sapiens, Table 2): 0.49 µM | GI50 (TK-10; Homo sapiens, Table 2): 1.42 µM | GI50 (UACC-257): 1.78 µM

C=C1C(=O)O[C@H]2[C@H]1CC/C(Cn1cc(-c3ccsc3)nn1)=C\CC[C@@]1(C)O[C@@H]21 [JVM 4-53]
GI50 (CCRF-CEM; Table 3): 1.63 µM | GI50 (HCC-2998; Table 3): 1.84 µM | GI50 (HCT-116; Table 3): 1.16 µM | GI50 (HCT-15; Table 3): 1.11 µM | GI50 (KM12; Table 3): 6.45 µM | GI50 (LOX IMVI; Table 3): 1.28 µM | GI50 (MALME-3M; Table 3): 1.61 µM | GI50 (MDA-MB-468; Table 3): 1.28 µM | GI50 (MOLT-4; Table 3): 2.59 µM | GI50 (NCI-H322M; Table 3): 10.5 µM | GI50 (NCI/ADR-RES; Table 3): 3.79 µM | GI50 (OVCAR-5; Table 3): 2.29 µM | GI50 (OVCAR-8; Table 3): 2.96 µM | GI50 (PC-3; Table 3): 4.21 µM | GI50 (SF-268; Table 3): 2.53 µM | GI50 (SF-539; Table 3): 1.8 µM | GI50 (SK-MEL-2; Table 3): 2.27 µM | GI50 (SK-MEL-5; Table 3): 1.83 µM | GI50 (SN12C; Table 3): 2.45 µM | GI50 (SNB-19; Table 3): 9.49 µM | GI50 (SNB-75; Table 3): 3.23 µM | GI50 (SR; Table 3): 0.56 µM | GI50 (SW-620; Table 3): 1.32 µM | GI50 (TK-10; Table 3): 1.52 µM

C=C1C(=O)O[C@H]2[C@H]1CC/C(Cn1cc(-c3ccccc3)nn1)=C\CC[C@@]1(C)O[C@@H]21 [JVM 3-74, (1aR,7aS,10aS,10bS,E)-1a-Methyl-8-methylene-5-((4-phenyl-1H-1,2,3-triazol-1-yl)methyl)-2,3,6,7,7a,8,10a,10b-octahydrooxireno[2′,3′:9,10]cyclodeca[1,2-b]furan-9(1aH)-one]
GI50 (CCRF-CEM; Homo sapiens, Table 2): 0.99 µM | GI50 (HCC-2998; Homo sapiens, Table 2): 6.16 µM | GI50 (HCT-116; Homo sapiens, Table 2): 1.17 µM | GI50 (HCT-15; Homo sapiens, Table 2): 0.77 µM | GI50 (KM12; Homo sapiens, Table 2): 8.48 µM | GI50 (LOX IMVI; Homo sapiens, Table 2): 0.8 µM | GI50 (MALME-3M; Homo sapiens, Table 2): 1.17 µM | GI50 (MDA-MB-468; Homo sapiens, Table 2): 0.95 µM | GI50 (MOLT-4; Homo sapiens, Table 2): 1.29 µM | GI50 (NCI-H322M; Homo sapiens, Table 2): 7.79 µM | GI50 (NCI/ADR-RES; Homo sapiens, Table 2): 6.17 µM | GI50 (OVCAR-5; Homo sapiens, Table 2): 5.7 µM | GI50 (OVCAR-8; Homo sapiens, Table 2): 2.31 µM | GI50 (PC-3; Homo sapiens, Table 2): 5.65 µM | GI50 (SF-268; Homo sapiens, Table 2): 5.63 µM | GI50 (SF-539; Homo sapiens, Table 2): 2.01 µM | GI50 (SK-MEL-2; Homo sapiens, Table 2): 5.5 µM | GI50 (SK-MEL-5; Homo sapiens, Table 2): 7.32 µM | GI50 (SN12C; Homo sapiens, Table 2): 4.5 µM | GI50 (SNB-19; Homo sapiens, Table 2): 7.87 µM | GI50 (SNB-75; Homo sapiens, Table 2): 6.21 µM | GI50 (SR; Homo sapiens, Table 2): 1.06 µM | GI50 (SW-620; Homo sapiens, Table 2): 1.5 µM | GI50 (TK-10; Homo sapiens, Table 2): 1.21 µM | GI50 (UACC-257): 3.78 µM

From patent US10428082B2, “Triazole derivatives of melampomagnolide B and methods of use thereof” (BioVentures, LLC, priority 2016, dated 2019)
